Reference: US7989203B2, “Methods for use of apoptotic cells to deliver antigen to dendritic cells for induction or tolerization of T cells” (The Rockefeller University, priority 1998, dated 2011)
“Also recorded” adds a separate entry of the source. Like-named read-outs stand apart in the source and are kept apart here. *: point of attachment. Cbz = O=C(OCc1ccccc1)*

How the values were obtained:
[1] = test system: DCs; assay type: cell-based, human
[2] = target: protein kinase C; conditions: footnote to Table II; cited from earlier work
[3] = test system: immature DCs; assay type: cell-based, human; conditions: for Percent Inhibition of phagocytosis of apoptotic cells: immature DC/apoptotic cell coculture, averages of 2-4 experiments
[4] = test system: DCs; assay: Y-Ae epitope (I-Ab/I-E peptide complex) formation on DCs cultured with B blasts (FACS); assay type: cell-based, mouse; conditions: DCs cultured 20 h with B blasts
Procedure: [FIG. 11B]: Y-Ae epitope formation is blocked by NH4Cl. DCs were cultured 20 h with B blasts with or without NH4Cl at 5-20 mM. The cultures were stained for Y-Ae and CD86.
Antibodies. The Y-Ae hybridoma was generously provided by Dr. C. Janeway, Yale University, New Haven Conn. and grown serum-free. The IgG2b antibody was purified on protein A sepharose, biotinylated, and used in the FACS along with PE-streptavidin to detect MHC class II-peptide complexes (75,76) with a mouse IgG2b anti-human TCR antibody as the non-reactive control [PharMingen, San Diego Calif.]. The cells were double labeled for FACS and for microscopy with FITC antibodies to CD8, CD11c, CD86, I-Ab [AF6-120.1], 1-Ad, and I-E [14-4-4S][PharMingen].
Capture of cell-derived peptides in vitro. Bone marrow DCs were generated in 24 well plates for 6 days in GM-CSF, gently washed to remove mature floating DCs, and then fed B blasts, human cells, or a peptide [residues 56-73 of 1-Eα]. Before adding I-E^+ cells or peptide, the DCs were immature, since much of the MHC class II was in intracellular lysosomal compartments and CD86 was not expressed at the surface (84) After uptake of I-E, the DCs matured with high levels of surface MHC II and CD86.

[5] = test system: influenza-infected monocytes; assay type: cell-based, human; conditions: concentrations which inhibited apoptosis of the infected monocytes; 7 days
[6] = test system: influenza-infected monocytes; assay type: cell-based, human; conditions: determined by TUNEL; without affecting expression of viral proteins
[7] = target: phospholipase D; conditions: footnote to Table II; cited from earlier work

## C[C@H]1CCC/C=C/[C@@H]2C[C@H](O)C[C@H]2[C@H](O)/C=C/C(=O)O1 [BFA, Brefeldin A]
[1]; DCs preincubated with 6 ug/ml
  DCs ability to present antigenic material on MHC class I: completely inhibited

## COc1ccc2c(c[n+](C)c3c4cc5c(cc4ccc23)OCO5)c1OC.[Cl-] [CC, Chelethrine chloride]
[2]
  IC50: 660 nM
[3]; 12 μM
  Percent Inhibition of phagocytosis of apoptotic cells: 4%

## C=C1[C@@H](C)[C@H]2[C@H](Cc3ccccc3)NC(=O)[C@]23[C@H](OC(C)=O)/C=C/[C@@](C)(O)C(=O)[C@@H](C)C/C=C/[C@H]3[C@@H]1O [Cytochalasin D]
[3]; concentration not given
  inhibition of phagocytosis of apoptotic cells by immature DCs (in words): blocked uptake

## O=C(O)CN(CCN(CC(=O)O)CC(=O)O)CC(=O)O [EDTA]
[3]
  inhibition of phagocytosis of apoptotic cells by immature DCs (in words): inhibitory

## O=C(O)c1cc(N(Cc2ccccc2O)Cc2cc(O)ccc2O)ccc1O [LA, Lavendustin A]
[3]; 10 μM
  Percent Inhibition of phagocytosis of apoptotic cells: 14%
[3]; 40 μM
  Percent Inhibition of phagocytosis of apoptotic cells: 41.5%

## O=C(O)c1cc(N(Cc2ccccc2O)Cc2ccccc2O)ccc1O [LB, Lavendustin B]
[3]; 10 μM
  Percent Inhibition of phagocytosis of apoptotic cells: 0%
[3]; 40 μM
  Percent Inhibition of phagocytosis of apoptotic cells: 0%

## CC(=O)N[C@@H](CSC(=O)[C@]1([C@@H](O)C(C)C)NC(=O)[C@H](C)[C@@H]1O)C(=O)O [Lactacystin]
[1]; unpublished data, concentration not given
  antigen presentation by the uninfected DCs: only partially blocked

## Cl.N [NH4Cl, ammonium chloride]
[1]
  DCs ability to present antigenic material on MHC class I: completely inhibited
[4]; 5 mM
  Y-Ae development (epitope formation): partially
[4]; 20 mM
  Y-Ae development (epitope formation): totally blocked; also recorded: completely blocked

## Cbz-Val-Ala-Asp-aldehyde
[5]
  generation of virus-specific CTLs after transfer of medium from treated infected monocytes to T cells and uninfected DCs: virus-specific CTLs were not generated
[6]
  apoptosis of influenza-infected monocytes: block apoptosis

## Herbamycin A
[3]; 1.8 μM
  Percent Inhibition of phagocytosis of apoptotic cells: 6.5%
[3]; 9 μM
  Percent Inhibition of phagocytosis of apoptotic cells: 49%
[3]; 18 μM
  Percent Inhibition of phagocytosis of apoptotic cells: 66.5%
[7]
  IC50, PDGF-induced phospholipase D activation: ^§Herbamycin A is a potent cell-permeable protein tyrosine kinase inhibitor and inhibits PDGF-induced phospholipase D activation (IC50 = 8 μg/ml) in a dose dependant manner.

## TSP: purified TSP (thrombospondin)
[3]; concentration not given
  inhibition of phagocytosis of apoptotic cells by immature DCs (in words): nor the addition of purified TSP to DC/apoptotic cell co-cultures has an inhibitory effect
